Assays:
Assay type in all cases: in vivo
[1] = system: barnyardgrass (Echinochloa crus-galli); test: Test G Pre-Emergence Protocol; details: Echinochloa crus-galli, pre-emergence, 312 h, evaluated after 13 days; for pest or weed control at 15.625 g/ha: 15.625 g ai/ha; for pest or weed control at 15.625 g/ha / pest or weed control at 250 g/ha: read-out: Barnyardgrass damage rating (100=total damage to plant; 0=no damage to plant); for pest or weed control at 62.5 g/ha: 62.5 g ai/ha, 100=total damage to plant, 0=no damage to plant, read-out: Barnyardgrass damage rating; for pest or weed control at 250 g/ha: 250 g ai/ha
In short: (§1)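 Herbicidal effect was rated 13 days post-application on a scale where 100 equals total damage. Spraying took place the day after sowing, using 15.625, 62.5 or 250 g/ha of compound in a 50:50 acetone/water solution with 0.5% Tween 20.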

corn (Zea mays) [2] = test: Test G Pre-Emergence Protocol; details: Zea mays, pre-emergence, 312 h, evaluated after 13 days; for plant injury at 15.625 g/ha: 15.625 g ai/ha; for plant injury at 15.625 g/ha / plant injury at 250 g/ha: read-out: Corn damage rating (100=total damage to plant; 0=no damage to plant); for plant injury at 62.5 g/ha: 62.5 g ai/ha, 100=total damage to plant, 0=no damage to plant, read-out: Corn damage rating; for plant injury at 250 g/ha: 250 g ai/ha
In short: as §1

[3] = system: giant foxtail (Setaria faberi); test: Test G Pre-Emergence Protocol; details: Setaria faberi, pre-emergence, 312 h, evaluated after 13 days; for pest or weed control at 15.625 g/ha: 15.625 g ai/ha; for pest or weed control at 15.625 g/ha / pest or weed control at 250 g/ha: read-out: Foxtail, Giant damage rating (100=total damage to plant; 0=no damage to plant); for pest or weed control at 62.5 g/ha: 62.5 g ai/ha, 100=total damage to plant, 0=no damage to plant, read-out: Foxtail, Giant damage rating; for pest or weed control at 250 g/ha: 250 g ai/ha
In short: as §1

[4] = system: ivy-leaved morning glory (Ipomoea hederacea); test: Test G Pre-Emergence Protocol; details: Ipomoea, pre-emergence, 312 h, evaluated after 13 days; for pest or weed control at 15.625 g/ha: 15.625 g ai/ha; for pest or weed control at 15.625 g/ha / pest or weed control at 250 g/ha: read-out: Morningglory, Ivy-leaved damage rating (100=total damage to plant; 0=no damage to plant); for pest or weed control at 62.5 g/ha: 62.5 g ai/ha, 100=total damage to plant, 0=no damage to plant, read-out: Morningglory, Ivy-leaved damage rating; for pest or weed control at 250 g/ha: 250 g ai/ha
In short: as §1

[5] = system: redroot pigweed (Amaranthus retroflexus); test: Test G Pre-Emergence Protocol; details: Amaranthus retroflexus, pre-emergence, 312 h, evaluated after 13 days; for pest or weed control at 15.625 g/ha: 15.625 g ai/ha; for pest or weed control at 15.625 g/ha / pest or weed control at 250 g/ha: read-out: Pigweed, Redroot damage rating (100=total damage to plant; 0=no damage to plant); for pest or weed control at 62.5 g/ha: 62.5 g ai/ha, 100=total damage to plant, 0=no damage to plant, read-out: Pigweed, Redroot damage rating; for pest or weed control at 250 g/ha: 250 g ai/ha
In short: as §1

[6] = system: velvetleaf (Abutilon theophrasti); test: Test G Pre-Emergence Protocol; details: Abutilon theophrasti, pre-emergence, 312 h, evaluated after 13 days; for pest or weed control at 15.625 g/ha: 15.625 g ai/ha; for pest or weed control at 15.625 g/ha / pest or weed control at 250 g/ha: read-out: Velvetleaf damage rating (100=total damage to plant; 0=no damage to plant); for pest or weed control at 62.5 g/ha: 62.5 g ai/ha, 100=total damage to plant, 0=no damage to plant, read-out: Velvetleaf damage rating; for pest or weed control at 250 g/ha: 250 g ai/ha
In short: as §1

[7] = system: barnyardgrass (Echinochloa crus-galli); test: Test G Post-Emergence Protocol; details: Echinochloa crus-galli, post-emergence, 312 h, read-out: Barnyardgrass damage rating; for pest or weed control at 15.625 g/ha: 15.625 g ai/ha, evaluated after 13 days (100=total damage to plant; 0=no damage to plant); for pest or weed control at 62.5 g/ha: 62.5 g ai/ha; for pest or weed control at 62.5 g/ha / pest or weed control at 250 g/ha: evaluated after 13 days, 100=total damage to plant, 0=no damage to plant; for pest or weed control at 250 g/ha: 250 g ai/ha
In short: (§2)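 Post-emergence herbicidal damage, scored visually 0–100 at 13 days. Application at 15.625, 62.5 or 250 g/ha onto 8-day-old plants grown under glasshouse control.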

corn (Zea mays) [8] = test: Test G Post-Emergence Protocol; details: Zea mays, post-emergence, 312 h, read-out: Corn damage rating; for plant injury at 15.625 g/ha: 15.625 g ai/ha, evaluated after 13 days (100=total damage to plant; 0=no damage to plant); for plant injury at 62.5 g/ha: 62.5 g ai/ha; for plant injury at 62.5 g/ha / plant injury at 250 g/ha: evaluated after 13 days, 100=total damage to plant, 0=no damage to plant; for plant injury at 250 g/ha: 250 g ai/ha
In short: as §2

[9] = system: giant foxtail (Setaria faberi); test: Test G Post-Emergence Protocol; details: Setaria faberi, post-emergence, 312 h, read-out: Foxtail, Giant damage rating; for pest or weed control at 15.625 g/ha: 15.625 g ai/ha, evaluated after 13 days (100=total damage to plant; 0=no damage to plant); for pest or weed control at 62.5 g/ha: 62.5 g ai/ha; for pest or weed control at 62.5 g/ha / pest or weed control at 250 g/ha: evaluated after 13 days, 100=total damage to plant, 0=no damage to plant; for pest or weed control at 250 g/ha: 250 g ai/ha
In short: as §2

[10] = system: ivy-leaved morning glory (Ipomoea hederacea); test: Test G Post-Emergence Protocol; details: Ipomoea, post-emergence, 312 h, read-out: Morningglory, Ivy-leaved damage rating; for pest or weed control at 15.625 g/ha: 15.625 g ai/ha, evaluated after 13 days (100=total damage to plant; 0=no damage to plant); for pest or weed control at 62.5 g/ha: 62.5 g ai/ha; for pest or weed control at 62.5 g/ha / pest or weed control at 250 g/ha: evaluated after 13 days, 100=total damage to plant, 0=no damage to plant; for pest or weed control at 250 g/ha: 250 g ai/ha
In short: as §2

[11] = system: redroot pigweed (Amaranthus retroflexus); test: Test G Post-Emergence Protocol; details: Amaranthus retroflexus, post-emergence, 312 h, read-out: Pigweed, Redroot damage rating; for pest or weed control at 15.625 g/ha: 15.625 g ai/ha, evaluated after 13 days (100=total damage to plant; 0=no damage to plant); for pest or weed control at 62.5 g/ha: 62.5 g ai/ha; for pest or weed control at 62.5 g/ha / pest or weed control at 250 g/ha: evaluated after 13 days, 100=total damage to plant, 0=no damage to plant; for pest or weed control at 250 g/ha: 250 g ai/ha
In short: as §2

[12] = system: velvetleaf (Abutilon theophrasti); test: Test G Post-Emergence Protocol; details: Abutilon theophrasti, post-emergence, 312 h, read-out: Velvetleaf damage rating; for pest or weed control at 15.625 g/ha: 15.625 g ai/ha, evaluated after 13 days (100=total damage to plant; 0=no damage to plant); for pest or weed control at 62.5 g/ha: 62.5 g ai/ha; for pest or weed control at 62.5 g/ha / pest or weed control at 250 g/ha: evaluated after 13 days, 100=total damage to plant, 0=no damage to plant; for pest or weed control at 250 g/ha: 250 g ai/ha
In short: as §2

Row | SMILES | pest or weed control at 15.625 g/ha [1] [%] | pest or weed control at 62.5 g/ha [1] [%] | pest or weed control at 250 g/ha [1] [%] | plant injury at 15.625 g/ha (corn (Zea mays) [2]) [%] | plant injury at 62.5 g/ha (corn (Zea mays) [2]) [%] | plant injury at 250 g/ha (corn (Zea mays) [2]) [%] | pest or weed control at 15.625 g/ha [3] [%] | pest or weed control at 62.5 g/ha [3] [%] | pest or weed control at 250 g/ha [3] [%] | pest or weed control at 15.625 g/ha [4] [%] | pest or weed control at 62.5 g/ha [4] [%] | pest or weed control at 250 g/ha [4] [%] | pest or weed control at 15.625 g/ha [5] [%] | pest or weed control at 62.5 g/ha [5] [%] | pest or weed control at 250 g/ha [5] [%] | pest or weed control at 15.625 g/ha [6] [%] | pest or weed control at 62.5 g/ha [6] [%] | pest or weed control at 250 g/ha [6] [%] | pest or weed control at 15.625 g/ha [7] [%] | pest or weed control at 62.5 g/ha [7] [%] | also measured
1 | CN1C[C@H](c2ccc(C(F)(F)F)cc2)[C@@H](C(=O)Nc2cnccc2C#N)C1=O (racemic) [Compound 1760] | 0 | 0 | 0 | 0 | 0 | 0 | 0 | 0 | 30 | 0 | 0 | 0 | 0 | 0 | 0 | 0 | 0 | 0 | 0 | 0 | pest or weed control at 250 g/ha [7]: 10%; plant injury at 15.625 g/ha (corn (Zea mays) [8]): 0%; plant injury at 62.5 g/ha (corn (Zea mays) [8]): 0%; plant injury at 250 g/ha (corn (Zea mays) [8]): 10%; pest or weed control at 15.625 g/ha [9]: 0%; pest or weed control at 62.5 g/ha [9]: 0%; pest or weed control at 250 g/ha [9]: 20%; pest or weed control at 15.625 g/ha [10]: 0%; pest or weed control at 62.5 g/ha [10]: 0%; pest or weed control at 250 g/ha [10]: 20%; pest or weed control at 15.625 g/ha [11]: 0%; pest or weed control at 62.5 g/ha [11]: 0%; pest or weed control at 250 g/ha [11]: 0%; pest or weed control at 15.625 g/ha [12]: 0%; pest or weed control at 62.5 g/ha [12]: 0%; pest or weed control at 250 g/ha [12]: 10%
2 | C=Cc1cccc([C@@H]2CN(C)C(=O)[C@H]2C(=O)Nc2cccc(F)c2F)c1 (racemic) [Compound 1762] | 70 | 80 | 80 | 0 | 30 | 80 | 70 | 80 | 80 | 0 | 10 | 10 | 0 | 10 | 20 | 0 | 0 | 10 | 10 | 50 | pest or weed control at 250 g/ha [7]: 80%; plant injury at 15.625 g/ha (corn (Zea mays) [8]): 20%; plant injury at 62.5 g/ha (corn (Zea mays) [8]): 30%; plant injury at 250 g/ha (corn (Zea mays) [8]): 80%; pest or weed control at 15.625 g/ha [9]: 60%; pest or weed control at 62.5 g/ha [9]: 70%; pest or weed control at 250 g/ha [9]: 80%; pest or weed control at 15.625 g/ha [10]: 30%; pest or weed control at 62.5 g/ha [10]: 60%; pest or weed control at 250 g/ha [10]: 70%; pest or weed control at 15.625 g/ha [11]: 20%; pest or weed control at 62.5 g/ha [11]: 0%; pest or weed control at 250 g/ha [11]: 10%; pest or weed control at 15.625 g/ha [12]: 10%; pest or weed control at 62.5 g/ha [12]: 0%; pest or weed control at 250 g/ha [12]: 70%
3 | CCOc1cc([C@@H]2CN(C)C(=O)[C@H]2C(=O)Nc2cccc(F)c2C)ccc1F (racemic) [Compound 1767] | 20 | 60 | 80 | 0 | 30 | 60 | 60 | 80 | 90 | 0 | 0 | 20 | 0 | 0 | 0 | 0 | 0 | 30 | 40 | 50 | pest or weed control at 250 g/ha [7]: 80%; plant injury at 15.625 g/ha (corn (Zea mays) [8]): 10%; plant injury at 62.5 g/ha (corn (Zea mays) [8]): 10%; plant injury at 250 g/ha (corn (Zea mays) [8]): 60%; pest or weed control at 15.625 g/ha [9]: 70%; pest or weed control at 62.5 g/ha [9]: 70%; pest or weed control at 250 g/ha [9]: 80%; pest or weed control at 15.625 g/ha [10]: 30%; pest or weed control at 62.5 g/ha [10]: 30%; pest or weed control at 250 g/ha [10]: 60%; pest or weed control at 15.625 g/ha [11]: 0%; pest or weed control at 62.5 g/ha [11]: 0%; pest or weed control at 250 g/ha [11]: 20%; pest or weed control at 15.625 g/ha [12]: 0%; pest or weed control at 62.5 g/ha [12]: 0%; pest or weed control at 250 g/ha [12]: 60%

— patent US12077503B2, “Substituted cyclic amides and their use as herbicides” (FMC CORPORATION, priority 2015, dated 2024)
